Values of other authors, collected in US5032586A, “7-keto or hydroxy 3,5-diene steroids as inhibitors of steroid 5-alpha reductase” (SmithKline Beecham Corporation, priority 1989, dated 1991).

System: 5-α-Reductase
Conditions: for Type of inhibition (Reversible/Irreversible): Table 1, printed with Ki; for Ki: literature values, Table 1

Row | Compound | Type of inhibition (Reversible/Irreversible) | Ki | Inhibition of steroid 5-α-reductase, in words (literature description)
1 | CCN(CC)C(=O)[C@H]1CC[C@H]2[C@@H]3CC[C@H]4N(C)C(=O)CC[C@]4(C)[C@H]3CC[C@]12C [(4)] | Reversible | 5 nM | 
2 | C=C1C[C@@H]2[C@H](CC[C@@]3(C)[C@H]2CC[C@]3(OC(C)=O)C(C)=O)[C@@]2(C)CCC(=O)C=C12 [(5)] | Irreversible | 1250 nM | timedependent inactivator of steroid 5-α-reductase
